# Structures can show the parent of a compound that is named as a salt. Where two headings read alike, the source gives them in different places. Square brackets hold non-standard residues; d marks the D form. Peptide text beside a SMILES is read from it. * marks the point of attachment. Sta = CC(C)C[C@H](N)[C@@H](O)CC(=O)O; Isovaleryl = CC(C)CC(=O)*
# How the values were obtained:
# [1] = tested on: HuT-78/HIV-1 and Sup-T1 cells; assay: cells; assay type: cell-based; conditions: read-out: IC50 inhibition of syncytia formation
# Method: Persistently infected HuT-78/HIV-1 cells were thoroughly washed to eliminate free virions. Next, 1 x 10^5 HuT-78/HIV-1 cells were co-cultivated with 1 x 10^5 Sup-T1 cells in 96-well plates (200 μl/well) during 20 h at 37°C, in the presence or absence of a serial dilution of compound. Afterwards, the formation of syncytia was evaluated microscopically. The EC50 was defined as the compound concentration required to suppress syncytia formation by 50%.
# HIV-1(IIIB) [2] = assay type: cell-based; conditions: for time post-infection at which activity is lost / time after virus infection that addition could be delayed without losing inhibitory activity: MT-4 cells; for time post-infection at which activity is lost: second TOA experiment, DS-8000 12.5 μM, AMD3100 625 nM; for time after virus infection that addition could be delayed without losing inhibitory activity: p24 ELISA at 31 h, AZT 1.9 μM, ritonavir 277 nM
# Method: Two time-of-drug-addition (TOA) experiments were performed and adopted from previously reported methods. Briefly, MT-4 cells were infected with HIV-1(IIIB) at a multiplicity of infection of 0.5. Following a 1 hour adsorption period, cells were washed, distributed in a 96-well tray at 100,000 cells per 200 μl per well and incubated at 37°C.
# For the first experiment, test compounds were added to the infected cell cultures at different time points (i.e. 0, 1, 2, 3, 4, 5, 6, 7, 8, 9, 24, and 25 h) after the start of infection.
# In a second experiment, the resolution of the assay was increased by evaluating early time points in more detail. Therefore, the test compounds were added to the infected cell cultures at the following time points after the start of infection: 0, 15, 30, 45, 100 and 180 min; and 24 as well as 25 h.
# Product added at time points 0, 15, 30 and 45 min was present at the start of the viral infection and washed away after 1 hour. After washing, fresh product was added to maintain viral suppression throughout the remaining of the experiment.
# HIV-1 production was determined at 31 h post infection via a p24 ELISA (Perkin Elmer, Brussels, Belgium).
# HIV-1 protease [3] = molecular target: T1, HIV-1 protease (Human immunodeficiency virus type 1 group M subtype B, UniProt P04585); assay: p55 cleavage in virus particles from HuT-78/HIV-1 cells (Western blot); assay type: cell-based; conditions: 43 h, AZT 3.7 μM, ritonavir 2.8 μM, TE-10 1 and 20 μM
# T1 construct: the virus-encoded protease; endogenous in cells; host or cells: persistently infected HuT-78/HIV-1(IIIB) cells and released virus particles
# Method: In order to confirm the inhibitory effect of TE-10, an additional assay was performed to study the inhibition of the HIV-1 protease by TE-10. Therefore, 2 x 10^5 persistently infected HuT-78/HIV-1 cells were washed thoroughly and seeded in 48-well plates, in the presence or absence of compound. As reference compounds, the RT inhibitor AZT (3.7 μM) and the protease inhibitor ritonavir (2.8 μM) were used, as negative and positive controls, respectively. TE-10 was used at 1 μM and 20 μM. After 43 h of incubation at 37°C, virus-containing cell culture supernatants were harvested and the cells were removed by centrifugation (10 min at ± 900 x g). Then, virus was precipitated from the cell supernatant by centrifugation at ± 3.5 x 10^4 x g for at least 2 h. The viruses were resuspended in PBS and lysed with Triton-X100 (Sigma-Aldrich, Diegem, Belgium). These viral lysates were then subjected to SDS-PAGE and subsequent Western blotting to detect the presence of p24 and its precursor p55, using an anti-p24 antibody (AB9044; final concentration 2.4 μg/ml).
# HIV-1 [4] = assay: Infectivity assay in TZM-bl cells (luciferase); conditions: TZM-bl, 40 h
# Method: TZM-bl cells (1 x 10^5) were infected with diluted virus suspension (see virus expression) in a total volume of 0.2 ml DMEM medium in the presence of the compounds or an inhibitor control (nevirapine). After 40 h at 37°C, the luminescence was assayed and quantified in a Luminoskan Ascent (Thermo Labsystems, Schwerte, Germany) for luciferase activity using the OneGlo luciferase assay system (Promega, Nacka, Sweden).
# HIV-1(IIIB) [5] = assay: microbe, parasite or virus in culture; assay type: cell-based; conditions: for Ratio IC50/EC50 HIV-1 (CEM): CEM cells; for EC50: Human immunodeficiency virus 1, IIIB, CCRF-CEM
# Method: (§1) To study the antiviral activity in transformed cells, CEM cells were suspended in fresh culture medium and infected with HIV-1(IIIB) or HIV-2(ROD) at 100 x CCID50 (cell culture infective dose 50%) per ml of cell suspension. Infected cell suspension (100 μl; 3 x 10^5 cells/ml) was transferred to a 96-well microplate, mixed with 100 μl of the appropriate dilutions of compounds, and further incubated at 37°C. After 4 days, giant cell formation was recorded microscopically and the number of giant cells was estimated microscopically as percentage of the number of giant cells present in the non-treated virus-infected cell cultures.
# HIV-1 [6] = assay: Infectivity (TZM-bl) of virus particles produced by ACH-2 cells in presence of compound; assay type: cell-based; conditions: for carry-over control: residual compound as cause of decreased infectivity: compound added at 1/100 of concentration in viral growth culture
# Method: To measure the infectivity of particles produced in the presence of the compounds, washed persistently HIV-1-infected ACH-2 cells (1 x 10^6 cells/ml) were cultured with 100 nM PMA in the presence of the indicated concentration of compounds. After 3 days, the p24 content of the clarified supernatant (see virus expression) was measured. The cell supernatant was then used for an infectivity test (see infectivity assay) without the further addition of any compound to the cultures. The final dilution of the ACH-2 supernatant in the infectivity test was 1:100. A control experiment was performed, in which virus particles produced without the addition of compound, were used for the infectivity test. Additionally, the same amount of compound that could have been carried over with the virus containing supernatant in the original experiment was added to the infectivity test (final concentration: 1/100 of the indicated amount in the viral growth culture).
# PHA-stimulated PBMCs = assay: Toxicity in PHA-stimulated PBMCs (trypan blue cell counting); assay type: cell-based, human; conditions: Homo sapiens, PBMC, 168 h, read-out: IC50 PBMC
# Method: A similar experiment was performed to study the toxicity of the compounds in fresh, PHA-stimulated, PBMCs. Mock-infected PBMCs (2 x 10^5 cells) were exposed to a serial dilution of compound, in a total volume of 200 μl. Cells were passaged after 4 days. Cell survival and proliferation was assessed at day 7 using trypan blue-based cell counting with the Countess Automated Cell Counter (Invitrogen, Ghent, Belgium). The IC50 was defined as the concentration of the compound that inhibited cell proliferation by 50%.
# HeLa cells = assay: Cytostatic activity assay, HeLa cells; assay type: cell-based; conditions: Homo sapiens, 72 h, read-out: IC50 HeLa
# Method: (§2) The cytostatic activity assay using transformed cell lines was also performed in 96-well microtiter plates. 5–7.5 x 10^4 human CD4^+ T-lymphocyte CEM or human cervix carcinoma HeLa cells and a given amount of the test compounds were added to each well. The cells were allowed to proliferate for 72 h (96 h for HeLa) at 37°C in a humidified CO2-controlled atmosphere. At the end of the incubation period, the cells were counted in a Coulter counter (type ZM, Coulter Electronics, Analis, Ghent, Belgium).
# HIV-1(BaL) = assay: Antiviral activity in PHA-stimulated PBMCs (p24 ELISA), HIV-1(BaL); assay type: cell-based; conditions: Human immunodeficiency virus 1, BAL, PBMC; for EC50: read-out: EC50 HIV-1 (BAL)
# Method: (§3) To test the antiviral activity in fresh, PHA-stimulated PBMCs, an experiment was performed as previously described. Briefly, the cells were preincubated with HIV-1(IIIB), HIV-1(BaL) or HIV-1(HE) for 1 h at 37°C, using a viral load of 1000 x CCID50 per ml. Then, cell suspensions containing virus and 2 x 10^5 PBMCs were seeded in a 96-well microtiter plate and a serial dilution of compound was added, in a total volume of 200 μl. After 4 days, the cells were passaged and fresh culture medium, containing IL-2 and compound, was added. Three days later, cellular supernatants were harvested and viral replication in the presence of the compounds was quantified using a p24 enzyme-linked immunosorbent assay (ELISA) (Perkin Elmer, Brussels, Belgium). The half maximal effective concentration (EC50) was defined as the compound concentration that is required to block viral replication by 50%.
# HIV-1(IIIB) [7] = assay: Antiviral activity in PHA-stimulated PBMCs (p24 ELISA), HIV-1(IIIB); assay type: cell-based; conditions: Human immunodeficiency virus 1, IIIB, PBMC, read-out: EC50 HIV-1 (IIIB)
# Method: as §3
# HIV-2(ROD) = assay: Inhibition of HIV-2(ROD)-induced giant cell formation in CEM cell cultures; assay type: cell-based; conditions: for Ratio IC50/EC50 HIV-2 (CEM): CEM cells; for EC50: Human immunodeficiency virus 2, CCRF-CEM, read-out: EC50 HIV-2 (ROD)
# Method: as §1
# HIV-1 protease [8] = molecular target: T1, HIV-1 protease; assay: HIV-1 protease inhibition (SensoLyte 520 kit); assay type: biochemical; conditions: 25 μM
# Method: The ability of the compounds to inhibit the activity of recombinant HIV-1 protease was determined by a SensoLyte 520 HIV-1 protease assay kit (AnaSpec Inc., Fremont, CA) according to the manufacturer’s instructions. Compounds (10 μl of a 250 μM, solution, giving a final concentration of 25 μM in the reaction mixture) and 40 μl HIV-1 protease (100 ng/well; AnaSpec Inc.) were added to a dark-bottom 96-well plate. Pepstatin A was included as an inhibitor control. The plate as well as the HIV-1 protease substrate solution (provided) were incubated for 15 minutes at 37°C and 50 μl protease substrate was added to all wells. The fluorescence was measured at Ex/Em = 490 nm/520 nm with a Varioskan Flash (Thermo Electron Corporation, Schwerte, Germany).
# HIV-1(HE) = assay: Antiviral activity in PHA-stimulated PBMCs (p24 ELISA), HIV-1(HE); assay type: cell-based; conditions: Human immunodeficiency virus 1, PBMC, read-out: EC50 HIV-1 (HE)
# Method: as §3
# [9] = previously known structural properties ref 20-22; cited from earlier work
# CEM cells = assay: Cytostatic activity assay, CEM cells; assay type: cell-based; conditions: Homo sapiens, CCRF-CEM, 72 h; inhibition of cell proliferation by 50%, three-day drug-exposed; mean ± SD
# Method: as §2
# [10] = Human immunodeficiency virus 1, SUP-T1, 24 h
Molecule,p55 cleavage in viral particles (Western blot) (HIV-1 protease [3]),Ratio IC50/EC50 HIV-1 (CEM) (HIV-1(IIIB) [5]),EC50 (HIV-1(IIIB) [5]; read-out: EC50 HIV-1 (IIIB)) [µM],carry-over control: residual compound as cause of decreased infectivity (HIV-1 [6]),IC50 (PHA-stimulated PBMCs) [µM],IC50 (HeLa cells) [µM],EC50 (HIV-1(BaL)) [µM],EC50 (HIV-1(IIIB) [7]) [µM],Ratio IC50/EC50 HIV-2 (CEM) (HIV-2(ROD)),EC50 (HIV-2(ROD)) [µM],EC50 (HIV-1(HE)) [µM],Hydrophobicity [9],"IC50 [1, 10] [µM]",IC50 (CEM cells) [µM],further results
c1cc(CN2CCCNCCNCCCNCC2)ccc1CN1CCCNCCNCCCNCC1 [AMD3100],,,,,,,,,,,,,,,"IC50 ([1]; Human immunodeficiency virus 1, cocultures of HuT-78/HIV-1 and Sup-T1 cells, ~24 hours): 9.3 ± 4.3 µM; inhibition in time-of-addition assay (HIV-1(IIIB) [2]; 625 nM): fully inhibitory; time post-infection at which activity is lost (HIV-1(IIIB) [2]): 30 to 45 min"
"Cc1cn([C@H]2C[C@H](N=[N+]=[N-])[C@@H](CO)O2)c(=O)[nH]c1=O [AZT, 3’-azido-2’,3’-dideoxythymidine]",allow efficient p55 cleavage,,,,,,,,,,,,,,time after virus infection that addition could be delayed without losing inhibitory activity (HIV-1(IIIB) [2]): at least 3 h
"COC(=O)CCN(CCC(=O)OC)c1ccc([Te]c2ccc(N(CCC(=O)OC)CCC(=O)OC)cc2)cc1 [TE-10, bis[4-(N,N-di(2-carbomethoxyethyl)amino)phenyl]telluride]",allow efficient p55 cleavage,16,16 ± 7.9,could not be explained by the presence of residual compound,19 ± 2,128 ± 29,12 ± 10,12 ± 4,17,15 ± 2.6,6.6 ± 2.1,Hydrophobic,> 250,≥ 250,fold higher concentration for similar inhibition of luminescence signal than the other organotellurium compounds (HIV-1 [4]): approximately 10 fold; EC50 (HIV-1(IIIB) [5]; read-out: EC50 (range given)): 15 to 16 µM; decrease of protease activity (HIV-1 protease [8]): 50%
"CN(C)c1ccc([Te]CCCOc2ccccc2)cc1 [TE-14, N,N-dimethyl-4-aminophenyl 3-phenoxypropyl telluride]",,26,0.86 ± 0.21,could not be explained by the presence of residual compound,9.9 ± 2.5,25 ± 4,9.6 ± 10,4.9 ± 2.1,16,1.4 ± 0.56,5.4 ± 3,Hydrophobic,> 250,22 ± 2,"infectivity of virus particles produced in presence of compound (normalized for equal p24) (HIV-1 [6]; ACH-2 cultures exposed to compound 3 days, supernatant 1:100 titrated on TZM-bl): substantially less infectious virus particles"
"CCCC[Te]CCCS(=O)(=O)O [TE-20, 3-(butyltelluro)propanesulfonic acid sodium salt]",,38,2.7 ± 2.6,could not be explained by the presence of residual compound,75 ± 53,101 ± 3,≥ 25,18 ± 12,36,2.9 ± 1.3,11 ± 9,Hydrophilic,> 250,103 ± 27,inhibition at 25 µM (HIV-1(BaL); read-out: inhibition at indicated concentration): 30 to 50%
"CC(C)CC(=O)N[C@H](C(=O)N[C@H](C(=O)N[C@@H](CC(C)C)[C@@H](O)CC(=O)N[C@@H](C)C(=O)N[C@@H](CC(C)C)[C@@H](O)CC(=O)O)C(C)C)C(C)C [pepstatin A, reference compound] (Isovaleryl-VV[Sta]A[Sta]-OH)",,,,,,,,,,,,,,,inhibition of protease activity (HIV-1 protease [8]): pronounced inhibitory activity
CC(C)c1nc(CN(C)C(=O)N[C@H](C(=O)N[C@@H](Cc2ccccc2)C[C@H](O)[C@H](Cc2ccccc2)NC(=O)OCc2cncs2)C(C)C)cs1 [ritonavir],blocks this cleavage,,,,,,,,,,,,,,time after virus infection that addition could be delayed without losing inhibitory activity (HIV-1(IIIB) [2]): ≥ 8 h
dextran sulphate [DS-8000],,,,,,,,,,,,,,,time post-infection at which activity is lost (HIV-1(IIIB) [2]): 30 to 45 min
enfuvirtide,,,,,,,,,,,,,,,"IC50 ([1]; cocultures of HuT-78/HIV-1 and Sup-T1 cells, ~24 hours): 0.275 ± 0.15 µM"

# — article PMC4729491, “The Cellular Thioredoxin-1/Thioredoxin Reductase-1 Driven Oxidoreduction Represents a Chemotherapeutic Target for HIV-1 Entry Inhibition” (PLoS ONE, 2016)
